Laboratory results published in ChEMBL document CHEMBL3124819, “2',4'-Difluoro-2'-methyl Substituted Nucleoside Derivatives as Inhibitors of HCV RNA Replication” (ACS Med Chem Lett, 2014).

Key:
[1] = Cytotoxicity against human HuH7 cells after 2 hrs by WST-1 assay relative to control; assay type: cell-based, Huh-7
Hepatitis C virus = experiment: Antiviral activity against HCV genotype 1b infected in human HuH7 cells assessed as inhibition of viral RNA replication after 3 days by luciferase reporter gene assay; assay type: functional, organism-based, Hepacivirus hominis; conditions: Huh-7, 72 h

Row | SMILES | CC50 at 2 h [1] [µM] | IC50 (Hepatitis C virus) [nM]
1 | CC(C)OC(=O)[C@H](C)NP(=O)(OC[C@@]1(F)O[C@@H](n2ccc(=O)[nH]c2=O)[C@](C)(F)[C@@H]1O)Oc1ccc2ccccc2c1 (stereo partly specified) | > 100 | 
2 | CCC(=O)O[C@H]1[C@@](C)(F)[C@H](n2ccc(=O)[nH]c2=O)O[C@]1(F)COP(=O)(N[C@@H](C)C(=O)OC(C)C)Oc1cccc2ccccc12 (stereo partly specified) | 67.8 | 152
3 | CC(C)OC(=O)[C@H](C)NP(=O)(OC[C@@]1(F)O[C@@H](n2ccc(=O)[nH]c2=O)[C@](C)(F)[C@@H]1O)Oc1ccccc1 (stereo partly specified) | > 100 | 
4 | CC(C)OC(=O)[C@H](C)NP(=O)(OC[C@@]1(F)O[C@@H](n2ccc(=O)[nH]c2=O)[C@](C)(F)[C@@H]1O)Oc1cccc2ccccc12 (stereo partly specified) | > 100 | 115
